# From patent EP3884948A1, “CATHEPSIN INHIBITORS AND USES THEREOF” (Ecole Polytechnique Fédérale de Lausanne (EPFL), priority 2020, dated 2021)
# Columns and labels:
# cathepsin B (CTSB) = cathepsin B (CTSB) (Homo sapiens, UniProt P07858); experiment: FRET specificity assay for cathepsin B; assay type: biochemical; details: for inhibition of Cathepsin B activity (MCA fluorescent emission): CTSB, peptide of SEQ ID NO: 5 as substrate, Fig. 4
# Experimental: (§1) First, specific conditions to activate the enzymes were used as follows: CTSB was diluted in active buffer (MES 25 mM, DTT 5 mM, pH 5) at 10 µg/ml, incubated at 37°C for 2h and then diluted to 1 µg/ml in assay buffer (MES 25 mM, pH 5) for the FRET assay. CTSH was diluted in a specific active buffer (MES 50 mM, CaCl2 10 mM, NaCl 150 mM, pH 6.5) 200 µg/ml. In addition, as co-stimulatory activator thermolysin diluted at 100 µg/ml in active buffer was used mixed with equal volume of the diluted CTSH. The solution was incubated for 1h room temperature and then we added 2 mM Phosporamidon diluted in assay buffer (MES 50 mM, pH 6,5) and incubate the mix for 10 minutes at room temperature. Lastly, an equal volume of assay buffer containing 20 mM DTT was added and the mixture incubated 5 minutes at room temperature. For the FRET assay, diluted both CTSH, and CTSB at 1 µg/ml were used in their specific assay buffer and incubated with a specific substrate. As substrate, the following peptides were used: peptide of SEQ ID NO: 5 (KPPKPVSD) in CTSB FRET assays and SEQ ID NO: 1 (KLRMKLPKP) in CTSH FRET assays and tested increasing doses of candidate inhibitors (20 µM, 10 µM, 1 µM, 0.1 µM). Fluorescence emission was measured with SpectraMax iD3 (Molecular Devices) in kinetic mode over three hours (excitation: 330 nm, emission: 390 nm).
# [1] = test system: A20-HA lymphoma cells co-incubated with CD8+ T-cells isolated from CL4-HA transgenic animals; experiment: Co-culture assay of A20-HA lymphoma cells with CD8+ T-cells; assay type: cell-based, mouse; details: A20-HA cells pre-treated with 30uM inhibitor; for over-activation of CD8+ T-cells: 72h co-incubation
# Experimental: Proteins were extracted using a buffer containing 20 mM Tris-HCl (pH 7.5) 150 mM NaCl, 1 mM Na2EDTA 1 mM EGTA 1% NP-40 1% sodium deoxycholate 2.5 mM sodium pyrophosphate 1 mM β-glycerophosphate 1 mM Na3VO4 1 µg/ml leupeptin) supplemented with protease (Sigma Aldrich, cat #11836153001) and phosphatases (Roche, cat #04906837001) inhibitors and quantified with the Bradford reagent (Bio-Rad, cat #5000006). 20-30 µg of proteins were resolved on SDS-PAGE and transferred at 20V for 20-30 minutes to Immobilon-P-membranes (Millipore). After blocking in 5% milk (Applichem, cat #A0830) in PBS-0.1%Tween (Fisher scientific, cat #BP337), membranes were incubated overnight in 5% milk in PBS-Tween with the following primary antibodies: goat anti-human Cathepsin S (RD, cat #AF1183, 1:2000), Cathepsin B (D1C7Y) XP® Rabbit (Cell signaling mAb #31718), rabbit anti-mouse Cathepsin S (Sino Biological, cat #50769-R054, 1:1000), mouse anti-human CD74 (PIN.1, StressMarq, cat #SMC-116, diluted 1:1000), rat-anti-mouse CD74 (clone ln-1, BD biosciences, cat #555317, 1:1000), rabbit anti-his-Tag (Cell Signaling, cat #D3I10, dilute 1:1000), mouse anti-human alpha-Tubulin (clone B-5-1-2, Sigma Aldrich, cat#T6072, diluted 1:10000), anti-beta actin (clone 8H10D10, ThermoFisher Scientific, cat# MA5-15452, 1:1000).
# At the end of the B-cell/T cell co-culture, […] and analyzed for the proliferation of T cells stained with an Pe-Cy7 anti-mouse CD8a antibody (Clone 53-6.7, BD Biosciences, San Jose, CA, USA, cat #552877) or PercP efluor 710 rat anti-CD4 antibody (bd bioscience, cat#564379) by quantifying CellTrace violet proliferation peaks using flow cytometry. In parallel, B cell concentration was measured using cell-counting flow-cytometer (Guava easyCyte). A20-HA lymphoma cells wild-type, Ctss knock-out, B2m knock-out, and Pdl1 knock-out expressing HA as antigen were pre-treated with 30uM E64 (Apexbio Technology LLC (cat #A2576), 30uM Z-FL-COCHO (Anawa trading SA, cat #A13502-5), 30uM LY300328 (Lucerna Chem AG, cat # MCE-HY-15533) or-directly co-incubated for 72h with CellTrace violet stained CD8+ T-cells isolated from CL4-HA transgenic animals. At the end of the B-cell/T cell co-culture, cells were collected, stained with PE-Cy7 anti-mouse CD8a antibody (Clone 53-6.7, BD Biosciences, San Jose, CA, USA cat #552877) and analyzed for the proliferation of T cells stained by quantifying CellTrace violet proliferation peaks using flow cytometry. In parallel, B cell concentration was measured using cell-counting flow-cytometer (Guava easyCyte).
# cathepsin S (CTSS) = biological target: T1, cathepsin S (CTSS) (Homo sapiens, UniProt P25774); experiment: FRET assay for cathepsin S (inhibitor screen and substrate cleavage); assay type: biochemical; details: for inhibition of cathepsin S activity (MCA fluorescent emission): CTSS, peptide of SEQ ID NO: 1 as substrate, Fig. 3; for cleavage by CTSS as substrate: FRET, CTSS-His-WT, SEQ ID NO: 1 compared with SEQ ID NO: 4
# T1 construct: made in house; host or cells: HEK293
# T1 sequence (P25774 115-331): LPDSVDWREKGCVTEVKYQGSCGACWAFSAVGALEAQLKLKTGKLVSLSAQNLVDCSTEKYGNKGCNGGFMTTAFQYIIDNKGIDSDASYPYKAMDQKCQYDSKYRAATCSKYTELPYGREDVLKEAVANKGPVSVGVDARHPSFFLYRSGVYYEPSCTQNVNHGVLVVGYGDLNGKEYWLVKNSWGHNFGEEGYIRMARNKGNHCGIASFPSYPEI
# Experimental: CTSS-His WT and Y132D were diluted to 10 µg/mL in Assay buffer (50 mM NaOAc, 5 mM DTT, 250 mM NaCl), at pH 4.5 and incubated at 37°C for 90 minutes to allow auto-activation. The proteins were then diluted to 0.5 ng/µl in Assay buffer and plated in 96-well plates (50 µl/well). The peptides of SEQ ID NO: 1, SEQ ID NO: 2, SEQ ID NO: 3, SEQ ID NO: 4 and SEQ ID NO: 5 were synthesized and diluted to 20 µM in a buffer (50 mM NaOAc, 5 mM DTT, 250 mM NaCl) then added to the activated CTSS (50 µl/well). 50 µM E64 (Selleckchem, cat #S7379) was added to CTSS prior to the substrate as positive control. A commercially available CTSS purified protein (R&D systems, cat #1183-CY-010) was in addition used as control. MCA emission was measured with SpectraMax iD3 (Molecular Devices) in kinetic mode for 20 minutes (excitation: 330 nm, emission: 390 nm).
# The FRET assay was miniaturized to performed the screen in […] and each molecule was tested in duplicates. 10 µg/ml of CTSS was incubated in the activation buffer for 105 minutes to allow a complete activation of the enzyme. Then, the enzyme was diluted at 0.5 µg/ml and dispensed in […] pre-loaded with the small molecule candidates using an automatic dispenser (Biotek Dispenser multiflo). The plates were incubated for 10 minutes at room temperature and then 20 µM of substrate was added in each well and acquired the fluorescence signal (excitation: 330 nm, emission: 390 nm) after 90 minutes. For each plate, were included untreated wells as negative control and E64 was used (150 µM) as positive control. To assess the quality of the screen, a Z'-score for each plate was calculated and all plates had Z' score > 0.6. To identify possible hits, the average value and standard deviation of the positive and negative control were calculated. The upper and lower limit values for each plate were calculated considering plus/minus three times the standard deviation to the average and only compounds that in both independent duplicate scored below the positive control threshold were retained.
# cathepsin H (CTSH) = cathepsin H (CTSH) (Homo sapiens, UniProt P09668); experiment: FRET specificity assay for cathepsin H; assay type: biochemical; details: peptide of SEQ ID NO: 2 as substrate, Fig. 5
# Sequence of cathepsin H (CTSH) (P09668 116-335 limits assumed, other chains not shown): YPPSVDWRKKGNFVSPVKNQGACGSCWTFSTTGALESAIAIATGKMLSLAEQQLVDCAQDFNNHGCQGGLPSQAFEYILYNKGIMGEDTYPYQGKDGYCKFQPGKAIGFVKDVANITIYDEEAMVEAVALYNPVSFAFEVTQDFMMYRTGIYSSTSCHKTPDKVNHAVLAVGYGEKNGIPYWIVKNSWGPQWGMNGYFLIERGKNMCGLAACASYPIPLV
# Experimental: as §1, with “As substrate, the following peptides were used: peptide of SEQ ID NO: 5 (KPPKPVSD) in CTSB FRET assays and SEQ ID NO: 1 (KLRMKLPKP) in CTSH FRET assays and tested increasing doses of candidate inhibitors (20 µM, 10 µM, 1 µM, 0.1 µM).” left out
# [2] = test system: human lymphoma cancer cell lines (Karpas-422 and DoHH2); experiment: Cell viability assay in lymphoma cell lines; assay type: cell-based; details: for toxicity / cell survival: Karpas-422 and DoHH2, 48h or 72h, increasing doses up to 50 µM
# Experimental: Two human lymphoma cell lines DoHH2 and Karpas-422 and one murine lymphoma cell line A20 were treated with increasing concentration of compounds (1), (5) and (9). 24 hours before treatment cells were diluted at 2^∗10^5 cells/ml. Cell number was measured at 48h and 72h after treatment using automatic cell counting of Millipore Guava. The values were normalized to cells treated with the same dose of vehicle (DMSO).
# Next, the toxicity of these inhibitors on two human lymphoma cancer cell lines (Karpas-422 and DoHH2). The cells were treated with the small molecules for 48h or 72h at increasing doses (50 µM, 10 µM, µM, 0.1 µM). […] Conversely, compound (9) progressively decreases cell proliferation of up to 50% after 72 hours of exposure to the 0. 1 µM of the compound or less than 30% in cells treated with 10 or 50 µM.
compound,measurement,setting,value
KPPKPVSK [SEQ ID NO: 4],substrate for Cathepsin B,cathepsin B (CTSB),good substrate for Cathepsin B
Z-FL-COCHO,"accumulation of the small fragment of CD74, p10",[1],observed
same,over-activation of CD8+ T-cells,[1],no over-activation
"O=c1ccc(-c2ccco2)nn1CCNS(=O)(=O)c1ccccc1F [compound (1), 2-fluoro-N-[2-[3-(2-furanyl)-6-oxo-1(6H)-pyridazinyl]ethyl]-benzenesulfonamide]",inhibition of cathepsin S activity (MCA fluorescent emission),cathepsin S (CTSS),able to inhibit cathepsin S activity
same,inhibition of Cathepsin B activity (MCA fluorescent emission),cathepsin B (CTSB),not Cathepsin B
same,inhibition of Cathepsin H activity (MCA fluorescent emission),cathepsin H (CTSH),not Cathepsin H
same,toxicity / cell survival,[2],well tolerated
KLRMKLPKP [SEQ ID NO: 1],cleavage by CTSS as substrate,cathepsin S (CTSS),cleaved more efficiently
CC(C)C[C@H](NC(=O)[C@H]1O[C@@H]1C(=O)O)C(=O)NCCCCNC(=N)N [E64],"accumulation of the small fragment of CD74, p10",[1],observed
same,over-activation of CD8+ T-cells,[1],no over-activation
"Cc1nc(N2CCCC(C(=O)NCc3ccco3)C2)c2c(C)c(C)oc2n1 (stereo not shown) [compound (9), N-(2-furanylmethyl)-1-(2,5,6-trimethylfuro[2,3-d]pyrimidin-4-yl)-3-piperidinecarboxamide]",inhibition at 0.1 µM,"[2]; Homo sapiens, after 72 hours of exposure to 0.1 µM, read-out: decrease of cell proliferation",≤ 50%
KLRMKLPKD [SEQ ID NO: 2],cleavage by CTSS as substrate,cathepsin S (CTSS),improved cathepsin S substrate
"Cc1noc(C)c1CC(=O)NCCn1nc(-c2ccco2)ccc1=O [compound (5), N-[2-[3-(2-furanyl)-6-oxo-1(6H)-pyridazinyl]ethyl]-3,5-dimethyl-4-isoxazoleacetamide]",inhibition of cathepsin S activity (MCA fluorescent emission),cathepsin S (CTSS),able to inhibit cathepsin S activity
same,inhibition of Cathepsin B activity (MCA fluorescent emission),cathepsin B (CTSB),not Cathepsin B
same,inhibition of Cathepsin H activity (MCA fluorescent emission),cathepsin H (CTSH),not Cathepsin H
same,toxicity / cell survival,[2],well tolerated
"Cc1oc2ncnc(N3CCCC(C(=O)NCCc4ccco4)C3)c2c1C (stereo not shown) [compound (11), 1-(5,6-dimethylfuro[2,3-d]pyrimidin-4-yl)-N-[2-(2-furanyl)ethyl]-3-piperidinecarboxamide]",inhibition of cathepsin S activity (MCA fluorescent emission),cathepsin S (CTSS),able to inhibit cathepsin S activity
same,inhibition of Cathepsin B activity (MCA fluorescent emission),cathepsin B (CTSB),not Cathepsin B
same,inhibition of Cathepsin H activity (MCA fluorescent emission),cathepsin H (CTSH),not Cathepsin H
